Results reported in patent US8969312B2, “Low side effect pharmaceutical composition containing antituberculosis drugs” (priority 2011, dated 2015).

Legend:
[1] = target: human liver microsomal cytochrome P450 2E1 (CYP2E1) (Homo sapiens, UniProt P05181); assay: Human liver microsomal CYP2E1, chlorzoxazone 6-hydroxylation;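 also: chlorzoxazone added as substrate, 6-hydroxychlorzoxazone formation quantified by LC/MS/MS after 30 min at 37 °C with NADP+ regenerating system, compared against solvent control without test sample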
Experimental: (§1) Microsomes prepared from human liver were used to extract cytochrome P450 2E1 (CYP2E1) and CYP2E1 inhibitors were screened from 39 Chinese medicine guiding drugs and 10 excipients. Chlorzoxazone hydroxylation is a reaction catalyzed primarily by CYP2E1 in liver. The extracted human liver microsomal cytochrome P450 2E1 (CYP2E1) was mixed with its substrate, Chlorzoxazone, and test sample was then added Inhibition of CYP2E1 activity was calculated by measuring CYP2E1 standard metabolite, 6-OH-CZX (6-Hydroxy-Chlorzoxazone), and compared with control 6-OH-CZX.
(§2) After incubation, 16 mM Chlorzoxazone and test samples were added to experimental groups; methanol:sterilized water at 1:1 ratio was added to control groups and DDTC was added to positive control groups,
(§3) Finally, cofactor 1 mM NADP^+, 10 mM G6P and 2 IU G6PD were added and reaction mixtures were transferred to pre-incubation 37° C. water bath for 1 mM and activity was measured after 30 min of reaction
(§4) At the end of reaction, 500 μl acetonitrile was added to stop the reaction followed by 5 g/mL 4-hydroxy-tobutamide after 1 mM incubation. The mixture was then centrifuged and 20 L of supernatant was diluted ten times with methanol/sterilized water and 5 L was used for LC/MS/MS analysis. […] The inhibition of CYP2E1 was then calculated by the following equation:

amidase = assay: Mouse liver microsomal amidase, isoniazid to isonicotinic acid; format: biochemical
From the text: Mouse liver microsomes were used as the source of amidase, and isoniazid was used as the amidase metabolism drugs. quantitative isoniazid was catalyzed into metabolites isonicotinic acid (INA) by amidase, and was used as the index for measurement of the amidase activity for establishment of the platform for screening in vitro amidase activity inhibitors. The HPLC system includes a Shimadzu the LC-LOAD pump, 1 Shimadzu system control and a Shimadzu autosampler (Shimadzu Scientific Instrument, Japan). A C18 column (particle size 5 μm, inner diameter of 50×4.6 mm, 25 cm) containing 70% methanol and 30% ammonium formate (50 mM, pH=2.5) of the mobile phase for HPLC separation, and the experimental steps are outlined as follows:
(2) An aliquot of 150 μL mouse liver microsomal solution was added to 100 μL isoniazid solution in 35 μL 67 mM potassium phosphate buffer solution ([…], pH=7) with a final concentration at 3 mM, and then mixed thoroughly with 15 μL amidase inhibitor (deionized water was added in the control group). (3) Incubation at 37° C. water bath for 30 minutes. (4) An aliquot of 300 μL acetonitrile (ACN) was added and mixed thoroughly, and incubated for 6 minutes. (5) An aliquot of 30 μL perchloric acid was then mixed and incubated for 6 minutes. (6) The mixture was centrifuged at 13000 g for 6 minutes. (7) After centrifugation, 100 μL of the supernatant was injected into HPLC. (8) Methanol ammonium formate (50 mM, pH=2.5)=70:30 (V/V) was selected as the mobile phase, and the flow rate was controlled at […] and detected at 270 nm UV. […] The amidase inhibition % was then calculated using the following formula: […]

CYP2E1 = CYP2E1 (Homo sapiens, UniProt P05181); assay: Human liver microsomal CYP2E1, chlorzoxazone 6-hydroxylation; conditions: human; for inhibition at 30 min, 16.5 µM / inhibition at 30 min, 33 µM / inhibition at 30 min, 66 µM / inhibition at 30 min, 0.08 % (w/v) / inhibition at 30 min, […] (w/v): human liver microsomes, pH 7.4, probe Chlorzoxazone; for inhibition at 30 min, 0.167 % (w/v): microsomes, pH 7.4;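 as to all read-outs here: chlorzoxazone added as substrate, 6-hydroxychlorzoxazone formation quantified by LC/MS/MS after 30 min at 37 °C with NADP+ regenerating system, compared against solvent control without test sample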
Experimental: as §1, §2, §3, §4

[2] = Table 6, minimum tested concentration (mg/L) × volume of human liver and intestine (3 L)

CYP2E1, sequence (P05181 whole entry): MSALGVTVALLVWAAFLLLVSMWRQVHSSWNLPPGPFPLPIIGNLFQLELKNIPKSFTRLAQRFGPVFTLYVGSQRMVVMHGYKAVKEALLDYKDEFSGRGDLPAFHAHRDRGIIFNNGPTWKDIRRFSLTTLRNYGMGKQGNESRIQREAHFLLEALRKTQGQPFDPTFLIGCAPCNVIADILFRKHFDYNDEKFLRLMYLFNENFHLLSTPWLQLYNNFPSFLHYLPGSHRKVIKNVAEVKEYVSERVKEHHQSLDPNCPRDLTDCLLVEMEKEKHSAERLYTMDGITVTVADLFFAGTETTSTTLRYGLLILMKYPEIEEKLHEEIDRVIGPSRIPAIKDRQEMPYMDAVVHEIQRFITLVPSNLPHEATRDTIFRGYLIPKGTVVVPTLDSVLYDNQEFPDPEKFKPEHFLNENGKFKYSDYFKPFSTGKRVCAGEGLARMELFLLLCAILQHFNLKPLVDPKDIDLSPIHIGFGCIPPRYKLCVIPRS
human liver microsomal cytochrome P450 2E1 (CYP2E1), sequence (P05181 whole entry): as above

O=c1c(O)c(-c2ccc(O)cc2O)oc2cc(O)cc(O)c12 [Morin]
Minimum Effective Dose [1, 2]: 16 mg
Amidase inhibition (amidase; 1 uM): −16.6 ± 4.8%
Amidase inhibition (amidase; 10 uM): 9.1 ± 1.7%
Amidase inhibition (amidase; 100 uM): 59.8 ± 5.1%

C=C(C)C1CC=C(C)CC1 (single isomer, unassigned; (+)) [(+)-Limonene]
Inhibition of CYP 2E1 ([1]; 16.5 μM): 13.77 ± 1.96%
Inhibition of CYP 2E1 ([1]; 33 μM): 38.05 ± 1.95%
Inhibition of CYP 2E1 ([1]; 66 μM): 63.64 ± 2.74%
Amidase inhibition (amidase; 1 uM): 5.1 ± 0.4%
Amidase inhibition (amidase; 10 uM): 3.2 ± 8.6%
Amidase inhibition (amidase; 100 uM): 6.2 ± 3.8%

O=c1cc(-c2ccc(O)cc2)oc2cc(O)cc(O)c12 [Apigenin]
Minimum Effective Dose [1, 2]: 15 mg
Amidase inhibition (amidase; 1 uM): −10.2 ± 20.3%
Amidase inhibition (amidase; 10 uM): 13.2 ± 3.4%

CCCOC(=O)c1ccc(O)cc1 [Propylparaben]
Minimum Effective Dose ([1]; Table 7): 9 mg
inhibition at 30 min, 16.5 µM (CYP2E1): -4.1 ± 1.2%
inhibition at 30 min, 33 µM (CYP2E1): -17.2 ± 2.4%
inhibition at 30 min, 66 µM (CYP2E1): -27.3 ± 3.7%

O=C(O)[C@H]1O[C@@H](Oc2cc3oc(-c4ccccc4)cc(=O)c3c(O)c2O)[C@H](O)[C@@H](O)[C@@H]1O [Baicalin]
Minimum Effective Dose [1, 2]: 24 mg
Amidase inhibition (amidase; 1 uM): 2.1 ± 7.5%
Amidase inhibition (amidase; 10 uM): 15.2 ± 6.3%
Amidase inhibition (amidase; 100 uM): 34.8 ± 10.2%

O=C(O)CC(O)(CC(=O)O)C(=O)O [Citric acid]
Minimum Effective Dose ([1]; Table 7): 10 mg
inhibition at 30 min, 16.5 µM (CYP2E1): 9.9 ± 3.1%
inhibition at 30 min, 33 µM (CYP2E1): 15.5%
inhibition at 30 min, 66 µM (CYP2E1): 20.5 ± 1.8%

O=c1cc(-c2ccc(O)cc2)oc2cc(O)c([C@@H]3O[C@H](CO)[C@@H](O)[C@H](O)[C@H]3O)c(O)c12 [Isovitexin]
Minimum Effective Dose [1, 2]: 24 mg
Amidase inhibition (amidase; 1 uM): 13.9 ± 2.3%
Amidase inhibition (amidase; 10 uM): 5.8 ± 2.7%
Amidase inhibition (amidase; 100 uM): 1.1 ± 7.1%

CC1=CC(=O)NS(=O)(=O)O1 [Acesulfame K]
Minimum Effective Dose ([1]; Table 7): 10 mg
inhibition at 30 min, 0.08 % (w/v) (CYP2E1): 7.1 ± 2.3%
inhibition at 30 min, […] (w/v) (CYP2E1): 3.9 ± 2.7%
inhibition at 30 min, 0.167 % (w/v) (CYP2E1): 14.5 ± 1.9%
Amidase inhibition (amidase; 0.0005%): −12.4 ± 27.4%
Amidase inhibition (amidase; 0.005%): −167.2 ± 167.3%
Amidase inhibition (amidase; 0.05%): 24.3 ± 4.9%

COc1cc(-c2oc3cc(O)cc(O)c3c(=O)c2O)ccc1O [Isorhamnetin]
Minimum Effective Dose [1, 2]: 14 mg
Amidase inhibition (amidase; 1 uM): 13.8 ± 1.0%
Amidase inhibition (amidase; 10 uM): 20.0 ± 4.6%
Amidase inhibition (amidase; 100 uM): 31.3 ± 1.3%

O=c1c(-c2ccc(O)cc2)coc2cc(O)cc(O)c12 [Genistein]
Minimum Effective Dose [1, 2]: 15 mg
Amidase inhibition (amidase; 1 uM): −2.1 ± 46.2%
Amidase inhibition (amidase; 10 uM): 1.8 ± 7.6%
Amidase inhibition (amidase; 100 uM): 5.8 ± 6.8%

Oc1cc(O)c2c(c1)O[C@H](c1cc(O)c(O)c(O)c1)[C@H](O)C2 [(−)-Epigallocatechin]
Inhibition of CYP 2E1 ([1]; 16.5 μM): 38.95 ± 1.92%
Inhibition of CYP 2E1 ([1]; 33 μM): 36.40 ± 2.18%
Inhibition of CYP 2E1 ([1]; 66 μM): 57.08 ± 1.85%
Minimum Effective Dose [1, 2]: 17 mg
Amidase inhibition (amidase; 1 uM): −1.2 ± 2.1%
Amidase inhibition (amidase; 10 uM): −7.3 ± 7.6%
Amidase inhibition (amidase; 100 uM): 2.2 ± 4.1%

O=c1cc(-c2ccc(O)c(O)c2)oc2cc(O[C@@H]3O[C@H](CO)[C@@H](O)[C@H](O)[C@H]3O)cc(O)c12 [Luteolin-7-Glucoside]
Inhibition of CYP 2E1 ([1]; 16.5 μM): 42.96 ± 5.10%
Inhibition of CYP 2E1 ([1]; 33 μM): 55.87 ± 0.67%
Inhibition of CYP 2E1 ([1]; 66 μM): 60.26 ± 1.11%
Minimum Effective Dose [1, 2]: 24 mg
Amidase inhibition (amidase; 1 uM): 3.2 ± 0.8%
Amidase inhibition (amidase; 10 uM): 8.7 ± 1.9%
Amidase inhibition (amidase; 100 uM): 12.9 ± 3.1%

O=c1c(-c2ccc(O)cc2)coc2cc(O)ccc12 [Daidzein]
Minimum Effective Dose [1, 2]: 14 mg
Amidase inhibition (amidase; 1 uM): −12.1 ± 6.3%
Amidase inhibition (amidase; 10 uM): 1.0 ± 7.4%
Amidase inhibition (amidase; 100 uM): 16.2 ± 12.6%

O=c1cc(-c2ccccc2)oc2cc(O)c(O)c(O)c12 [Baicalein]
Minimum Effective Dose [1, 2]: 15 mg
Amidase inhibition (amidase; 1 uM): 2.8 ± 15.1%
Amidase inhibition (amidase; 10 uM): 5.7 ± 2.6%
Amidase inhibition (amidase; 100 uM): 15.6 ± 1.0%

COC(=O)c1ccc(O)cc1 [Methylparaben]
Minimum Effective Dose ([1]; Table 7): 8 mg
inhibition at 30 min, 16.5 µM (CYP2E1): 4.6 ± 3.2%
inhibition at 30 min, 33 µM (CYP2E1): -14 ± 2.2%
inhibition at 30 min, 66 µM (CYP2E1): -21.5 ± 2%

COc1ccc(-c2oc3cc(O)cc(O)c3c(=O)c2O)cc1O [Tamarixetin]
Minimum Effective Dose [1, 2]: 17 mg
Amidase inhibition (amidase; 1 uM): 3.5 ± 10.5%
Amidase inhibition (amidase; 10 uM): 27.9 ± 6.3%
Amidase inhibition (amidase; 100 uM): 28.9 ± 4.2%

CC1CCC(C(C)C)C(O)C1 (stereo not shown) [Menthol]
Minimum Effective Dose ([1]; Table 7): 8 mg
inhibition at 30 min, 0.08 % (w/v) (CYP2E1): 20.8 ± 2.1%
inhibition at 30 min, […] (w/v) (CYP2E1): 10.5 ± 0.4%
inhibition at 30 min, 0.167 % (w/v) (CYP2E1): 30.8 ± 0.3%

COc1ccc(-c2cc(=O)c3c(O)cc(O[C@@H]4O[C@H](CO[C@@H]5O[C@@H](C)[C@H](O)[C@@H](O)[C@H]5O)[C@@H](O)[C@H](O)[C@H]4O)cc3o2)cc1O [Diosmin]
Minimum Effective Dose [1, 2]: 33 mg
Amidase inhibition (amidase; 1 uM): 0.3 ± 8.1%
Amidase inhibition (amidase; 10 uM): −0.7 ± 7.7%
Amidase inhibition (amidase; 100 uM): 1.6 ± 5.1%

C[C@@H]1O[C@@H](Oc2c(-c3ccc(O)c(O)c3)oc3cc(O)cc(O)c3c2=O)[C@H](O)[C@H](O)[C@H]1O [Quercitrin]
Minimum Effective Dose [1, 2]: 24 mg

O=c1c(O)c(-c2ccc(O)c(O)c2)oc2cc(O)cc(O)c12 [Quercetin]
Minimum Effective Dose [1, 2]: 16 mg
Amidase inhibition (amidase; 1 uM): 48.1 ± 15.0%
Amidase inhibition (amidase; 10 uM): 62.3 ± 4.4%
Amidase inhibition (amidase; 100 uM): 75.5 ± 2.2%

C=CC(=C)CCC=C(C)C [β-Myrcene]
Minimum Effective Dose [1, 2]: 8 mg
Amidase inhibition (amidase; 1 uM): 1.7 ± 1.3%
Amidase inhibition (amidase; 10 uM): 6.6 ± 4.1%
Amidase inhibition (amidase; 100 uM): 5.8 ± 2.7%

CCCCCCCCCCCCOS(=O)(=O)[O-].[Na+] [Sodium lauryl sulfate]
Minimum Effective Dose ([1]; Table 7): 14 mg
inhibition at 30 min, 16.5 µM (CYP2E1): 4.6 ± 1.1%
inhibition at 30 min, 33 µM (CYP2E1): 6.4 ± 0.9%
inhibition at 30 min, 66 µM (CYP2E1): 4.9 ± 1.6%
Amidase inhibition (amidase; 0.0005%): 9.6 ± 5.0%
Amidase inhibition (amidase; 0.005%): 19.3 ± 2.7%
Amidase inhibition (amidase; 0.05%): 66.1 ± 2.1%

C/C=C/C=C/C(=O)O [Sorbic acid]
Minimum Effective Dose ([1]; Table 7): 6 mg
inhibition at 30 min, 16.5 µM (CYP2E1): 8.4 ± 1.6%
inhibition at 30 min, 33 µM (CYP2E1): 10.9 ± 2.1%
inhibition at 30 min, 66 µM (CYP2E1): 14.8 ± 0.1%

O.OC[C@H]1O[C@@H](O[C@H]2[C@H](O)[C@@H](O)C(O)O[C@@H]2CO)[C@H](O)[C@@H](O)[C@H]1O (stereo partly shown) [Lactose monohydrate]
Minimum Effective Dose ([1]; Table 7): 18 mg
inhibition at 30 min, 16.5 µM (CYP2E1): 7.8 ± 2.2%
inhibition at 30 min, 33 µM (CYP2E1): 3.9 ± 2.3%
inhibition at 30 min, 66 µM (CYP2E1): 8.7 ± 3.8%

O=c1c(O)c(-c2cc(O)c(O)c(O)c2)oc2cc(O)cc(O)c12 [Myricetin]
Minimum Effective Dose [1, 2]: 17 mg
Amidase inhibition (amidase; 1 uM): 8.0 ± 4.9%
Amidase inhibition (amidase; 10 uM): 37.8 ± 8.4%
Amidase inhibition (amidase; 100 uM): 56.4 ± 1.5%

O=c1c(O[C@@H]2O[C@H](CO)[C@H](O)[C@H](O)[C@H]2O)c(-c2ccc(O)c(O)c2)oc2cc(O)cc(O)c12 [Hyperoside]
Minimum Effective Dose [1, 2]: 25 mg

COc1cc(C2Oc3cc([C@H]4Oc5cc(O)cc(O)c5C(=O)[C@@H]4O)ccc3OC2CO)ccc1O (stereo partly shown) [Silybin]
Minimum Effective Dose [1, 2]: 26 mg

CCCCCCCCCCCCCC(=O)OCC [Ethyl Myristate]
Minimum Effective Dose [1, 2]: 14 mg

O=C/C=C/c1ccccc1 [Trans-Cinnamaldehyde]
Minimum Effective Dose [1, 2]: 7 mg

O=c1cc(-c2ccc(O)c(O)c2)oc2cc(O)cc(O)c12 [Luteolin]
Minimum Effective Dose [1, 2]: 16 mg
Amidase inhibition (amidase; 1 uM): 6.1 ± 9.1%
Amidase inhibition (amidase; 10 uM): 23.0 ± 6.0%
Amidase inhibition (amidase; 100 uM): 47.5 ± 6.2%
